According to paper PMC3504387 (Chemmedchem, 2012):

Assays:
[1] = biological target: T1, GST–PPARα (ligand binding domain, TR-FRET) (Homo sapiens, UniProt Q07869); assay: TR-FRET cofactor peptide recruitment
T1 construct: gene PPARA
T1 sequence (Q07869 196-468 limits assumed): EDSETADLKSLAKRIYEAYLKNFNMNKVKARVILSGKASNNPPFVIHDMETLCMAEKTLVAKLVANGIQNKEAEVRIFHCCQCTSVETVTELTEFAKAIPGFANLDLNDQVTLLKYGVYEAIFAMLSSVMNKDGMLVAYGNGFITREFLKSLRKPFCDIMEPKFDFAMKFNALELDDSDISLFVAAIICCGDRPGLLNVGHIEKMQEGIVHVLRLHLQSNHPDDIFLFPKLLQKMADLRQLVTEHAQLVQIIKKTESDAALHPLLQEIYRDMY

[2] = biological target: T2, PPARδ (Gal4-PPARδ LBD, transactivation) (Homo sapiens, UniProt Q03181); assay: Gal4-LBD luciferase transactivation, BHK21 cells; assay type: cell-based; conditions: agonist; […] h, […] °C; unreliable
T2 construct: gene PPARD
T2 sequence (Q03181 139-441): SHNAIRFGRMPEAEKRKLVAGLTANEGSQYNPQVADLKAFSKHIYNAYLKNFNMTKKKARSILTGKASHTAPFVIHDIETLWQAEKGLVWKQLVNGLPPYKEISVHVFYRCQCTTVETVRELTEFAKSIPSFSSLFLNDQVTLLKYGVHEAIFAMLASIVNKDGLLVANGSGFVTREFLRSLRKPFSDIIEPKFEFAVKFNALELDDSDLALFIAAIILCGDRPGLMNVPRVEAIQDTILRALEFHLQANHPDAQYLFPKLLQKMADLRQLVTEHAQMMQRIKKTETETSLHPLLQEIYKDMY

[3] = biological target: T3, PPARγ (Gal4-PPARγ LBD, transactivation) (Mus musculus, UniProt P37238); assay: Gal4-LBD luciferase transactivation, BHK21 cells; assay type: cell-based; conditions: agonist; […] h, […] °C; unreliable
T3 construct: gene Pparg
T3 sequence (P37238 204-505): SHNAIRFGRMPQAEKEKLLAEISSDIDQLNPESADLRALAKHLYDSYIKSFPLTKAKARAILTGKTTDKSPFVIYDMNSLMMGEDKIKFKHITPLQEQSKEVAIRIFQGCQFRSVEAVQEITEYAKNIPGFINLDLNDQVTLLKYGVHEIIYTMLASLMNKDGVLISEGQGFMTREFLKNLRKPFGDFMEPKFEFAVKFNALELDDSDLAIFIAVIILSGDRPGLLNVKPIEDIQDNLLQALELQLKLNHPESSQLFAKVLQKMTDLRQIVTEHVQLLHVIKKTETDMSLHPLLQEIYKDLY

EC50 [1] [nM]	EC50 [2] [nM]	PPARδ / EC50 [3] [nM]	SMILES
1050			Cc1oc(-c2ccccc2)nc1CCOc1ccc(CC2SC(=O)NC2=O)c2sccc12 (stereo not drawn) [Edaglitazone]
	1060	1470	CC(C)(Oc1ccc(C(=O)c2ccc(Cl)cc2)cc1)C(=O)O [Fenofibric acid]
